In patent US20180194762A1 (Pharmacyclics LLC, priority 2017, published 2018) one finds IC50 and TEC/Btk data, which are given here for 14 compounds.

Holding throughout (assay type): biochemical
In one test the target is T1, Btk (Homo sapiens, UniProt Q06187).
T1 construct: purified from insect cells as a full-length construct containing a N-terminal 6X-His tag; His6 (N); made in house; host or cells: insect cells (Method C)
Kind of test: Btk in vitro inhibitory activity (one of Method A TR-FRET, Method B electrophoretic mobility shift, Method C radiometric filter binding). Put shortly:
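Three alternative formats were used. A radiometric filter-binding read used 8 nM full-length His-BTK with 0.2 mg/mL poly(Glu-Tyr) 4:1 (C); microfluidic separation of 1 μM FAM-peptide by 1 nM BTK gave IC50 from 12-point curves (B); TR-FRET at Km ATP, 0.5 nM Btk, gave Ki(app)-derived IC50 (A).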
In general terms: Mobility shift assays separate free from complexed probe on a gel.

For the next test, the target named is T2, TEC (Homo sapiens, UniProt P42680).
T2 sequence (P42680 1-631): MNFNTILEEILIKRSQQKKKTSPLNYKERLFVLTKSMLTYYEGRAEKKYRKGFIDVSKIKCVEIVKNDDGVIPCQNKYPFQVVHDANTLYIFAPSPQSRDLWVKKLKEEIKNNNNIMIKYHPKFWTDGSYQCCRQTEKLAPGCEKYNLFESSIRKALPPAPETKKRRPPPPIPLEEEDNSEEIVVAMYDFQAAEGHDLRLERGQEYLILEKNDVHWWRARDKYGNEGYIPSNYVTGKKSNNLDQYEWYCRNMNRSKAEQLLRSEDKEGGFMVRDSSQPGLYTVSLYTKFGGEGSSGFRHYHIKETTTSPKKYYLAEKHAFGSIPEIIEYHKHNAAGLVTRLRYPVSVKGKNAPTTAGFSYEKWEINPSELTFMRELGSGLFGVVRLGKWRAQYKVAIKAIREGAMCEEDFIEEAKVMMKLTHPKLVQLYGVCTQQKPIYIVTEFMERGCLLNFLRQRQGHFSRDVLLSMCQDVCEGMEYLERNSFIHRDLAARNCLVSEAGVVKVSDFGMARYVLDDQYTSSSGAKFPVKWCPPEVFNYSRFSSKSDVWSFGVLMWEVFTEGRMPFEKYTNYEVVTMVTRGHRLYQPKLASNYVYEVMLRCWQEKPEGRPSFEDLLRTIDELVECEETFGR
Kind of test: Inhibition of a panel of kinases (in vitro HotSpot kinase assay, 33P-ATP, 1 μM ATP). To be noted: for IC50: HotSpot kinase assay, 1 μM ATP; for TEC/Btk: ratio of TEC IC50 to Btk IC50 (selectivity). Put shortly:
(§1)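 Radiometric read-out: 33P transfer to a suitable substrate by each purified enzyme, ATP at 1 μM. Values are degree of inhibition.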

A further test concerns the target T3, panel of kinases (Homo sapiens, UniProt P51813).
T3 sequence (P51813 1-675): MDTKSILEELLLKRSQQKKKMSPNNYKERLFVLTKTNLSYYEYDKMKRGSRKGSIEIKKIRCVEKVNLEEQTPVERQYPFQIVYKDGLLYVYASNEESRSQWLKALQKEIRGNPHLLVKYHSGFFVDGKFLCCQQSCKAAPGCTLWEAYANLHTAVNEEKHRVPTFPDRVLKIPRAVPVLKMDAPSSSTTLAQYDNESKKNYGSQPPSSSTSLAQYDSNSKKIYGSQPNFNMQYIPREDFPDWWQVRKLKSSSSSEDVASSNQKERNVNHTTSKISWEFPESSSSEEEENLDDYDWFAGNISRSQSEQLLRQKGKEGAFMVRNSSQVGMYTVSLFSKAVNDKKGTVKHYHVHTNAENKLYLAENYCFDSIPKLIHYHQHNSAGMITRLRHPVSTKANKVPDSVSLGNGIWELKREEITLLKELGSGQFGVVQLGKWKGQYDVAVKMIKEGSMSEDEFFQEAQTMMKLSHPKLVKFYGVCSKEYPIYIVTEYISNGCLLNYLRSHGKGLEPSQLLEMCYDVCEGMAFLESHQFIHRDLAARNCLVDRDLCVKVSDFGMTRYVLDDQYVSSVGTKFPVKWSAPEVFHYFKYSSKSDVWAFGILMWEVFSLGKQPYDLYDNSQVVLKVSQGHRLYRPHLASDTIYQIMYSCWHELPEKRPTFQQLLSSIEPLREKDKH
The test is described as follows: Inhibition of a panel of kinases (in vitro HotSpot kinase assay, 33P-ATP, 1 μM ATP), other kinases. To be noted: BMX wild-type, read-out: BMX-WT IC50. Put shortly: as §1

Where [1] appears, read: wild-type Btk, read-out: Btk-WT IC50.
Where [2] appears, read: method is one of A, B or C, not stated which, read-out: IC50 values against Btk.

Each structure is given as a SMILES string. Like-named read-outs stand apart in the source and are kept apart here. Some results are limits rather than exact numbers.

T1 sequence (Q06187 whole entry): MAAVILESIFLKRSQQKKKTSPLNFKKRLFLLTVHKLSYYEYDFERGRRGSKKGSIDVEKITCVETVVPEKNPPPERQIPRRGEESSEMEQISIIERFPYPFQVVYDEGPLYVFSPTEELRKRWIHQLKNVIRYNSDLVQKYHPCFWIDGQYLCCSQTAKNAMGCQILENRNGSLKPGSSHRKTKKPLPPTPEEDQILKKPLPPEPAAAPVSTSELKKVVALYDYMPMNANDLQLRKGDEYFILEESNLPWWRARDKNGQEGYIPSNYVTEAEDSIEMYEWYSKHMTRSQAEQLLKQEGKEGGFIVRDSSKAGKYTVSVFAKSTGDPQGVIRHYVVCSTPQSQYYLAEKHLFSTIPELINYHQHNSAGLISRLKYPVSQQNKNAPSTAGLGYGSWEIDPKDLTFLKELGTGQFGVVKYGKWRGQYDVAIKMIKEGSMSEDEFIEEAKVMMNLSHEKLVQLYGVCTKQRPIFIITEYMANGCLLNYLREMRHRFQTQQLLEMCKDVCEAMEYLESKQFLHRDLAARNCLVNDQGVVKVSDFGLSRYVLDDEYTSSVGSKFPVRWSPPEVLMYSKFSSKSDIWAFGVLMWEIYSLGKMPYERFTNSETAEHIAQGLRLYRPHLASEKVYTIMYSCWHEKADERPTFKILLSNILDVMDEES

What is called IC50 is the concentration at which inhibition is half-maximal. For the compound `CC(C)(C)c1noc(C(=O)NCc2ccc(-c3ccnc4[nH]nc(N5CCC(NS(=O)(=O)C6CC6)CC5)c34)cc2F)n1` [Example 224, 3-tert-butyl-N-{[4-(3-{4-[(cyclopropanesulfonyl)amino]piperidin-1-yl}-1H-pyrazolo[3,4-b]pyridin-4-yl)-2-fluorophenyl]methyl}-1,2,4-oxadiazole-5-carboxamide], the results for the IC50 on Btk (setting [1]), against TEC and on panel of kinases were 0.0926 nM, 289 nM and 249 nM, respectively. Further, at TEC, the TEC/Btk stood at 3121.

For `CC(C)(C)c1noc(C(=O)NCc2ccc(-c3ccnc4[nH]nc(N5CCC(N)CC5)c34)cc2F)n1` [Example 178, N-({4-[3-(4-aminopiperidin-1-yl)-1H-pyrazolo[3,4-b]pyridin-4-yl]-2-fluorophenyl}methyl)-3-tert-butyl-1,2,4-oxadiazole-5-carboxamide], the IC50 at Btk (setting [2]) was under 10 nM; on Btk (setting [1]), 0.598 nM; at TEC, 722 nM; at panel of kinases, 1180 nM. The TEC/Btk on TEC came out at 1207.

In the case of `CC(C)(C)c1nc(C(=O)NCc2ccc(-c3ccnc4[nH]nc(NC5CNC5)c34)cc2F)no1` [Example 124, N-[(4-{3-[(azetidin-3-yl)amino]-1H-pyrazolo[3,4-b]pyridin-4-yl}-2-fluorophenyl)methyl]-5-tert-butyl-1,2,4-oxadiazole-3-carboxamide], the IC50 on Btk (setting [2]) is under 10 nM; on Btk (setting [1]), 0.828 nM; against TEC, 843 nM; on panel of kinases, 3350 nM. For the same compound, at TEC, the TEC/Btk turned out to be 1018.

With `C=CC(=O)N1CC[C@@H](Nc2n[nH]c3nccc(-c4ccc(CNC(=O)c5nnc(C(C)(C)C)o5)c(F)c4)c23)C1` [Example 81, 5-tert-butyl-N-{[2-fluoro-4-(3-{[(3R)-1-(prop-2-enoyl)pyrrolidin-3-yl]amino}-1H-pyrazolo[3,4-b]pyridin-4-yl)phenyl]methyl}-1,3,4-oxadiazole-2-carboxamide], the IC50 was under 10 nM at Btk (setting [2]), 0.227 nM at Btk (setting [1]), 131 nM on TEC and 89 nM at panel of kinases. The TEC/Btk at TEC stood at 577.

Regarding `C=CC(=O)N1CC[C@@H](Nc2n[nH]c3nccc(-c4ccc(CNC(=O)c5ccc(C(C)(C)C)cc5)c(F)c4)c23)C1` [Compound 6, 4-tert-butyl-N-{[2-fluoro-4-(3-{[(3R)-1-(prop-2-enoyl)pyrrolidin-3-yl]amino}-1H-pyrazolo[3,4-b]pyridin-4-yl)phenyl]methyl}benzamide], the IC50 was determined as 0.62 nM on Btk (setting [1]), 130 nM on TEC and 182 nM on panel of kinases. The TEC/Btk at TEC came out at 210.

As for `C[C@H]1CC[C@@H](Nc2n[nH]c3nccc(-c4ccc(CN5CCn6c(cc7c6CCCC7)C5=O)c(F)c4)c23)CN1C(=O)N(C)C` [Example 240, (2S,5R)-5-[(4-{3-fluoro-4-[(1-oxo-3,4,6,7,8,9-hexahydropyrazino[1,2-a]indol-2(1H)-yl)methyl]phenyl}-1H-pyrazolo[3,4-b]pyridin-3-yl)amino]-N,N,2-trimethylpiperidine-1-carboxamide], the IC50 on Btk (setting [1]) amounted to 5.5 nM; on TEC, 5030 nM; at panel of kinases, 387 nM. Besides, the TEC/Btk on TEC is listed as 915.

Consider `C=CC(=O)N1CC[C@@H](Nc2n[nH]c3nccc(-c4ccc(CNC(=O)c5cc(C(C)(C)C)on5)c(F)c4)c23)C1` [Example 65, 5-tert-butyl-N-{[2-fluoro-4-(3-{[(3R)-1-(prop-2-enoyl)pyrrolidin-3-yl]amino}-1H-pyrazolo [3,4-b]pyridin-4-yl)phenyl]methyl}-1,2-oxazole-3-carboxamide], for which the IC50 is under 10 nM on Btk (setting [2]), 0.0792 nM on Btk (setting [1]), 42 nM against TEC and 78 nM on panel of kinases. Further, the TEC/Btk at TEC is given as 529.

On to `CC(=O)N1CC[C@H](Oc2n[nH]c3nccc(-c4ccc(CNC(=O)c5nc(C(C)(C)C)no5)c(F)c4)c23)C1` [Example 284, (S)-N-[(4-{3-[(1-acetylpyrrolidin-3-yl)oxy]-1H-pyrazolo[3,4-b]pyridin-4-yl}-2-fluorophenyl)methyl]-3-tert-butyl-1,2,4-oxadiazole-5-carboxamide], for which the IC50 on Btk (setting [1]) amounted to 3.19 nM; at TEC, 2250 nM; at panel of kinases it was 2920 nM.

In the case of `C=CC(=O)N1CC[C@@H](Nc2n[nH]c3nccc(-c4ccc(CNC(=O)N5CCCCC5)c(F)c4)c23)C1` [Example 375, N-{[2-fluoro-4-(3-{[(3R)-1-(prop-2-enoyl)pyrrolidin-3-yl]amino}-1H-pyrazolo[3,4-b]pyridin-4-yl)phenyl]methyl}piperidine-1-carboxamide], the results for the IC50 at Btk (setting [1]), against TEC and on panel of kinases were 22.1 nM, 807 nM and 98.3 nM, respectively.

`CC(C)c1cc(C(=O)NCc2ccc(-c3ccnc4[nH]nc(N[C@@H]5CCCN[C@@H]5C)c34)cc2F)no1` [Example 172, N-{[2-fluoro-4-(3-{[(2R,3R)-2-methylpiperidin-3-yl]amino}-1H-pyrazolo[3,4-b]pyridin-4-yl)phenyl]methyl}-5-(propan-2-yl)-1,2-oxazole-3-carboxamide]: the results for the IC50 on Btk (setting [1]), against TEC and at panel of kinases were 436 nM, over 10000 nM and over 10000 nM, respectively. Moreover, the TEC/Btk on TEC was over 100.

On to `N[C@@H]1CCN(c2n[nH]c3nccc(-c4ccc(CNC(=O)c5nc6c(s5)CCCC6)c(F)c4)c23)C1` [Example 366, N-[(4-{3-[(3R)-3-aminopyrrolidin-1-yl]-1H-pyrazolo[3,4-b]pyridin-4-yl}-2-fluorophenyl)methyl]-4,5,6,7-tetrahydro-1,3-benzothiazole-2-carboxamide], for which the IC50 at Btk (setting [1]) turned out to be 21.9 nM; at TEC, 7070 nM; at panel of kinases, 1320 nM.

`C[C@H]1CC[C@@H](Nc2n[nH]c3nccc(-c4ccc(CNC(=O)c5cc(C(C)(C)C)on5)c(F)c4)c23)CN1` [Example 144, 5-tert-butyl-N-{[2-fluoro-4-(3-{[(3R,6S)-6-methylpiperidin-3-yl]amino}-1H-pyrazolo[3,4-b]pyridin-4-yl)phenyl]methyl}-1,2-oxazole-3-carboxamide]: the values for the half-inhibitory concentration (IC50) on Btk (setting [1]), against TEC and at panel of kinases were 225 nM, 1320 nM and 912 nM, respectively. Moreover, the TEC/Btk on TEC amounted to 6.

For `C=CC(=O)N1CC[C@@H](Nc2n[nH]c3nccc(-c4cccc(NC(=O)c5ccc(C(C)(C)C)cc5)c4C)c23)C1` [Compound 9, 4-tert-butyl-N-[2-methyl-3-(3-{[(3R)-1-(prop-2-enoyl)pyrrolidin-3-yl]amino}-1H-pyrazolo[3,4-b]pyridin-4-yl)phenyl]benzamide], the values for the IC50 on Btk (setting [1]), on TEC and on panel of kinases were 3.62 nM, 2460 nM and 1910 nM, respectively. For the same compound, on TEC, the TEC/Btk is 680.

Regarding `CC#CC(=O)N1CC[C@@H](Nc2n[nH]c3nccc(-c4ccc(CNC(=O)c5cc(C(C)(C)C)on5)c(F)c4)c23)C1` [Example 111, N-{[4-(3-{[(3R)-1-(but-2-ynoyl)pyrrolidin-3-yl]amino}-1H-pyrazolo[3,4-b]pyridin-4-yl)-2-fluorophenyl]methyl}-5-tert-butyl-1,2-oxazole-3-carboxamide], the IC50 is under 10 nM at Btk (setting [2]), 0.18 nM at Btk (setting [1]), 107 nM against TEC and 92 nM on panel of kinases. Moreover, the TEC/Btk at TEC is listed as 594.
